In US12583853B2, “1H-pyrrolo[2,3-b]pyridine derivatives and related compounds as BCL-2 inhibitors for the treatment of neoplastic and autoimmune diseases” (Newave Pharmaceutical Inc., priority 2018, dated 2026):
Values belong to the molecule of their own block, whether it stands above or below them.

How the values were obtained:
Mcl-1 = Mcl-1 (Homo sapiens, UniProt Q07820); conditions: cited from earlier work
RS4; 11 cells = conditions: cited from earlier work
CLL = conditions: read-out: average EC50, apoptosis in CLL; cited from earlier work
RS4; 11 xenografts = conditions: single dose of 100 mg/kg; cited from earlier work
[1] = tested on: xenograft (DoHH2, Granta-519); conditions: single agent or in combination with Bendamustine and other agents; cited from earlier work
Bcl-w = biological target: T1, Bcl-w (Homo sapiens, UniProt Q92843); conditions: cited from earlier work
T1 sequence (Q92843 1-193): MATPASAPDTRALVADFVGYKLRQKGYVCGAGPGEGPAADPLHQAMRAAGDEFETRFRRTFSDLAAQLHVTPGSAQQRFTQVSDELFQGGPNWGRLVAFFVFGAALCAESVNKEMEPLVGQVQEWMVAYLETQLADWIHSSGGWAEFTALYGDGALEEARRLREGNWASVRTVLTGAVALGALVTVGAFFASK

SCLC H146 cell line = conditions: read-out: IC50 against SCLC H146 cell line; cited from earlier work
H345 xenograft = conditions: 100 mg/kg/day, H345 xenograft model; cited from earlier work
[2] = tested on: xenograft models of small-cell lung cancer and acute lymphoblastic leukemia; conditions: oral administration, alone; cited from earlier work
circulating platelets = conditions: clinical trial, patients; cited from earlier work
[3] = in vivo; cited from earlier work
[4] = cited from earlier work
Bcl-2 = biological target: T2, Bcl-2 (Homo sapiens, UniProt P10415); experiment: Bcl-2 competition binding (fluorescence polarization) assay; conditions: for IC50: fluorescence polarization, 3 hours incubation at room temperature, read-out: BCL2 IC50; for BCL2 inhibitor potency in words: statement on the BCL2 IC50 table
T2 construct: purchased R&D Systems, Inc
T2 sequence (P10415 whole entry): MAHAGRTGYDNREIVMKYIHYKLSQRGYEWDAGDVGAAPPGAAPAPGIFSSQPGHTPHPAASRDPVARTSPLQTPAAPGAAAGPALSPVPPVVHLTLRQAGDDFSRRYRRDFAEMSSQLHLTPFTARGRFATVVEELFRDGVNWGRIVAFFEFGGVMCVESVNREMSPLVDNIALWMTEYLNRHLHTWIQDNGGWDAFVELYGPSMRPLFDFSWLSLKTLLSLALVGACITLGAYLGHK
Description: Biological Example 1: Bcl-2 Competition Binding (Fluorescence Polarization) Assay
This binding assay was performed in 96-well plate and with each assay contained 15 and 30 nM of labeled peptide and purified Bcl-2 protein (purchased from R&D Systems, Inc). The assay buffer contained 20 mM Hepes (pH 7.0), 50 mM KCl, 5 mM MgCl2, 20 mM Na2MoO4, 0.1 mg/ml Bovine Gamma Globulin and 0.01% NP40. Compounds were diluted in DMSO and added to the final assay with concentration range from 20 μM to 2 nM. The polarization degree (mP) value was determined by BioTek Synergy II with background subtraction after 3 hours of incubation at room temperature. IC50 was calculated using Prism software with sigmoidal dose-response curve fitting. ABT-737 was used as reference compound. Such assays, carried out with a range of doses of test compounds, allowed the determination of an approximate IC50 value.

Mcl-1, sequence (Q07820 whole entry, species assumed): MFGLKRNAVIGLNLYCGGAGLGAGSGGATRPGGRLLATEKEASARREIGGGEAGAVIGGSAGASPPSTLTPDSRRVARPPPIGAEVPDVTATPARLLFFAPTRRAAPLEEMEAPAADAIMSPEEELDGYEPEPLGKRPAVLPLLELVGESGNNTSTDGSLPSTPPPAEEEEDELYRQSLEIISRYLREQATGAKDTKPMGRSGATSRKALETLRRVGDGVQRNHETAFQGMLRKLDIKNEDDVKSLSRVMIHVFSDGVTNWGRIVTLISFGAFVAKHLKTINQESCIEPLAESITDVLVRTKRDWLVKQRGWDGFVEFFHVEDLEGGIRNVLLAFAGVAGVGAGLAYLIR

SMILES: CC1(C)CCC(CN2CCN(c3ccc(C(=O)NS(=O)(=O)c4ccc(NCC5CCOCC5)c([N+](=O)[O-])c4)c(Oc4cnc5[nH]ccc5c4)c3)CC2)=C(c2ccc(Cl)cc2)C1 [ABT-199]
activity to Mcl-1 (Mcl-1): no activity | EC50 (RS4; 11 cells): 8 nM | EC50 (CLL): 3 nM | maximal tumor growth inhibition (RS4; 11 xenografts): 95% | tumor growth delay (RS4; 11 xenografts): 152% | xenograft growth [1]: inhibits xenograft growth

SMILES: CC1(C)CCC(c2ccc(Cl)cc2)=C(CN2CCN(c3ccc(C(=O)NS(=O)(=O)c4ccc(N[C@H](CCN5CCOCC5)CSc5ccccc5)c(S(=O)(=O)C(F)(F)F)c4)cc3)CC2)C1 [ABT-263]
Ki (Bcl-w): ≤ 1 nM | IC50 (SCLC H146 cell line): 110 nM | TGI (H345 xenograft): 80% | treated tumors indicating at least a 50% reduction in tumor volume (H345 xenograft): 20% | tumor response [2]: complete tumor regressions | effect on circulating platelets (circulating platelets): rapid, concentration-dependent decrease in the number of circulating platelets | oral bioavailability [3]: orally bioavailable

SMILES: CN(C)CC[C@H](CSc1ccccc1)Nc1ccc(S(=O)(=O)NC(=O)c2ccc(N3CCN(Cc4ccccc4-c4ccc(Cl)cc4)CC3)cc2)cc1[N+](=O)[O-] [ABT-737]
oral bioavailability [3]: not orally bioavailable | aqueous solubility [4]: low aqueous solubility

IC50 (Bcl-2): 0.45 nM | BCL2 inhibitor potency in words (Bcl-2): highly potent BCL2 inhibitor
SMILES: CC1(C)CCC(CN2CCN(c3ccc(C(=O)NS(=O)(=O)c4ccc(NCC5CCOCC5)c([N+](=O)[O-])c4)c(P(C)(=O)c4cnc5[nH]ccc5c4)c3)CC2)=C(c2ccc(Cl)cc2)C1 (centres unmarked) [Example 1, 4-(4-[[2-(4-chlorophenyl)-4,4-dimethylcyclohex-1-en-1-yl]methyl]piperazin-1-yl)-2-[methyl(1H-pyrrolo[2,3-b]pyridin-5-yl)phosphoroso]-N-[3-nitro-4-[(oxan-4-ylmethyl)amino]benzenesulfonyl]benzamide]

IC50 (Bcl-2): 0.8 nM
SMILES: CC1(C)CCC(CN2CCN(c3ccc4c(c3)C(c3cnc5[nH]ccc5c3)CN(S(=O)(=O)c3ccc(NC[C@H]5COCCO5)c([N+](=O)[O-])c3)C4=O)CC2)=C(c2ccc(Cl)cc2)C1 (stereo partly drawn) [Example 2, 6-(4-[[2-(4-chlorophenyl)-4,4-dimethylcyclohex-1-en-1-yl]methyl]piperazin-1-yl)-2-(4-[[(2S)-1,4-dioxan-2-ylmethyl]amino]-3-nitrobenzenesulfonyl)-4-[1H-pyrrolo[2,3-b]pyridin-5-yl]-3,4-dihydroisoquinolin-1-one]

IC50 (Bcl-2): 1.3 nM | BCL2 inhibitor potency in words (Bcl-2): highly potent BCL2 inhibitor
SMILES: C=C(c1cnc2[nH]ccc2c1)c1cc(N2CCN(CC3=C(c4ccc(Cl)cc4)CC(C)(C)CC3)CC2)ccc1C(=O)NS(=O)(=O)c1ccc(NC[C@H]2COCCO2)c([N+](=O)[O-])c1 [Example 3, (S)—N-((4-(((1,4-dioxan-2-yl)methyl)amino)-3-nitrophenyl)sulfonyl)-2-(1-(1H-pyrrolo[2,3-b]pyridin-5-yl)vinyl)-4-(4-((4′-chloro-5,5-dimethyl-3,4,5,6-tetrahydro-[1,1′-biphenyl]-2-yl)methyl)piperazin-1-yl)benzamide]
